{
  "source": "patent EP2295964A1",
  "about": "“Irrigation solution” (priority 2009, dated 2011)",
  "conditions": "human, in vivo, iv",
  "method": "The kinetics of the glucose infusion was studied to characterize how effectively the volunteers handled the glucose molecules as well as the accompanying water volume. […] 2003, 90, 600-607, in which the plasma concentration of glucose above baseline (C) at any time (t) resulting from the infusion rate ki is calculated by using the following differential equation: (dC)/(dt) = (ki -(CL×C(t)))/(Vd) [formula] in which Vd is the volume of distribution and CL is the glucose clearance.\nThe data were normally distributed and thus results were expressed as the mean and standard deviation (SD). Correlations were evaluated by linear regression analysis. P < 0.05 was considered statistically significant.",
  "data": [
    {"substance": "D-glucose", "values": [
      {"measurement": "Vd, volume of distribution of exogenous glucose", "result": 15.52, "unit": "L"}
    ]}
  ]
}
